ChEMBL document CHEMBL4417631, “Oral peptide inhibitors of interleukin-23 receptor and their use to treat inflammatory bowel diseases” (2017)
*1 amine or outer side, *2 acyl side, *3 side chain or, on linkers, in order; H or OH if unused. Where a SMILES comes first, the peptide text is derived from it. Bridges are numbered along the chain shown (N, C = ends). [ ]: non-standard residue; d: D form. Abu(4-yl) = O=C([C@H](CC[*:3])N[*:1])[*:2]; 2Nal = N[C@@H](Cc1ccc2ccccc2c1)C(=O)O; AEF = NCCOc1ccc(C[C@H](N)C(=O)O)cc1; αMeK = C[C@](N)(CCCCN)C(=O)O

Tests used:
Interleukin-23 receptor [1] = target: T1, Interleukin-23 receptor (Homo sapiens, UniProt Q5VWK5); experiment: Inhibition of interleukin-23 binding to human interleukin-23 receptor incubated for 2 hrs by competitive binding ELISA
T1 sequence (Q5VWK5 whole entry): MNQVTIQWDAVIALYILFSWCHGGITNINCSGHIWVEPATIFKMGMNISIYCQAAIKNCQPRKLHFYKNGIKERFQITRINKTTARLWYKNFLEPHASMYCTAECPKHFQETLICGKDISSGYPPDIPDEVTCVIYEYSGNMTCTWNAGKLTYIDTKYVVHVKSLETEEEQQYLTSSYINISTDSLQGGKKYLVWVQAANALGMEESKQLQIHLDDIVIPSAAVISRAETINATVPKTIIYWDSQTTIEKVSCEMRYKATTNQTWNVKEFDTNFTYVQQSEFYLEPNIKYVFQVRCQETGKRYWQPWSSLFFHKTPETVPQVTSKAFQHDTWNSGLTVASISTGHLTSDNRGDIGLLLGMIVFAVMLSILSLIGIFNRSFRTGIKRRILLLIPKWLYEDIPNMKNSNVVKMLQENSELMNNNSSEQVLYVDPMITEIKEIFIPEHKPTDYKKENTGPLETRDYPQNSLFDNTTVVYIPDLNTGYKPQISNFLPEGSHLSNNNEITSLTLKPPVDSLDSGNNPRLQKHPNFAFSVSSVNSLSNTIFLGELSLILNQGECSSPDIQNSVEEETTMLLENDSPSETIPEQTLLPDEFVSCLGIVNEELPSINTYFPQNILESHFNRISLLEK

Interleukin-23 receptor [2] = target: T1, Interleukin-23 receptor; experiment: Inhibition of interleukin-23 receptor in human DB cells assessed as reduction in IL-23-stimulated STAT3 phosphorylation incubated for 30 mins by HTRF assay; assay type: cell-based
[3] = Inhibition of interleukin-23 binding to rat interleukin-23 receptor incubated for 2 hrs by competitive binding ELISA
[4] = Half life in simulated gastric fluid at 20 uM by LC-MS/MS analysis; assay type: ADME
[5] = Half life in simulated intestinal fluid at 20 uM by LC-MS/MS analysis; assay type: ADME

Row | IC50 (Interleukin-23 receptor [1]) | IC50 (Interleukin-23 receptor [2]) | IC50 [3] | half-life at 20 µM [4] | half-life at 20 µM [5] | SMILES
1 | < 10 nM | < 10 nM | 10 to 25 nM | < 1 h | 3 to 6 h | COc1ccc(C[C@H](NC(=O)[C@@H]2CSCC[C@H](NC(C)=O)C(=O)N[C@@H](CCC(N)=O)C(=O)N[C@@H]([C@@H](C)O)C(=O)N[C@@H](Cc3c[nH]c4ccccc34)C(=O)N[C@@H](CCC(N)=O)C(=O)N2)C(=O)N[C@@H](Cc2ccc3ccccc3c2)C(=O)N[C@@](C)(CCCCN)C(=O)N[C@@H](CCCCNC(C)=O)C(=O)N[C@@H](CC(N)=O)C(=O)NCC(N)=O)cc1
2 | 25 to 100 nM | < 10 nM | 25 to 100 nM | 3 to 6 h | > 6 h | COc1ccc(C[C@H](NC(=O)[C@@H](NC(=O)[C@H](CCC(N)=O)NC(=O)[C@H](Cc2c[nH]c3ccccc23)NC(=O)[C@@H](NC(=O)[C@H](CCC(N)=O)NC(=O)[C@@H](NC(=O)CCC(=O)O)C(C)(C)S)[C@@H](C)O)C(C)(C)S)C(=O)N[C@@H](Cc2ccc3ccccc3c2)C(=O)N[C@@](C)(CCCCN)C(=O)N[C@@H](CCCCNC(C)=O)C(=O)N[C@@H](CC(N)=O)C(=O)NCC(N)=O)cc1
3 | 10 to 25 nM | < 10 nM | 25 to 100 nM | < 1 h | 1 to 3 h | CC(=O)NCCCC[C@H](NC(=O)[C@](C)(CCCCN)NC(=O)[C@H](Cc1ccc2ccccc2c1)NC(=O)[C@H](Cc1ccc(C(N)=O)cc1)NC(=O)[C@@H]1CSCC[C@H](NC(C)=O)C(=O)N[C@@H](CCC(N)=O)C(=O)N[C@@H]([C@@H](C)O)C(=O)N[C@@H](Cc2c[nH]c3ccccc23)C(=O)N[C@@H](CCC(N)=O)C(=O)N1)C(=O)N[C@@H](CC(N)=O)C(=O)NCC(N)=O
4 | < 10 nM | < 10 nM | < 10 nM | 2 to 3 h | > 6 h | CC(=O)N[C@@H](CC(C)C)C(=O)N[C@H]1CCSC[C@@H](C(=O)N[C@@H](Cc2ccc(OCCN)cc2)C(=O)N[C@@H](Cc2ccc3ccccc3c2)C(=O)N[C@@](C)(CCCCN)C(=O)N[C@@H](CCC(=O)O)C(=O)N[C@@H](CC(N)=O)C(=O)N[C@@H](CC(N)=O)C(N)=O)NC(=O)[C@H](CCC(N)=O)NC(=O)[C@H](Cc2c[nH]c3ccccc23)NC(=O)[C@H]([C@@H](C)O)NC(=O)[C@H](CCC(N)=O)NC1=O (Ac-L[Abu(4-yl)]QTWQC[AEF][2Nal][αMeK]ENN-NH2; thioether 2-7)
5 | < 10 nM | < 10 nM | 10 to 25 nM | < 1 h | 1 to 2 h | COc1ccc(C[C@H](NC(=O)[C@@H]2CSCC[C@H](NC(=O)[C@@H](CCCCN)NC(C)=O)C(=O)N[C@@H](CCC(N)=O)C(=O)N[C@@H]([C@@H](C)O)C(=O)N[C@@H](Cc3c[nH]c4ccccc34)C(=O)N[C@@H](CCC(N)=O)C(=O)N2)C(=O)N[C@@H](Cc2ccc3ccccc3c2)C(=O)N[C@@](C)(CC(C)C)C(=O)N[C@@H](CCC(=O)O)C(=O)N[C@@H](CC(N)=O)C(=O)NCC(N)=O)cc1
6 | < 10 nM | < 10 nM | < 10 nM | < 1 h | 1 to 2 h | CC(=O)NCCOc1ccc(C[C@H](NC(=O)[C@@H]2CSCC[C@H](NC(C)=O)C(=O)N[C@@H](CCC(N)=O)C(=O)N[C@@H]([C@@H](C)O)C(=O)N[C@@H](Cc3c[nH]c4ccccc34)C(=O)N[C@@H](CCC(N)=O)C(=O)N2)C(=O)N[C@@H](Cc2ccc3ccccc3c2)C(=O)N[C@@](C)(CCCCN)C(=O)N[C@@H](CCC(=O)O)C(=O)N[C@@H](CC(N)=O)C(=O)NCC(N)=O)cc1
7 | < 10 nM | < 10 nM | < 10 nM | 2 to 3 h | > 6 h | CC(=O)N[C@@H](CCC(=O)O)C(=O)N[C@H]1CCSC[C@@H](C(=O)N[C@@H](Cc2ccc(OCCN)cc2)C(=O)N[C@@H](Cc2ccc3ccccc3c2)C(=O)N[C@@](C)(CCCCN)C(=O)N[C@@H](CCC(=O)O)C(=O)N[C@@H](CC(N)=O)C(=O)N[C@@H](CC(N)=O)C(N)=O)NC(=O)[C@H](CCC(N)=O)NC(=O)[C@H](Cc2c[nH]c3ccccc23)NC(=O)[C@H]([C@@H](C)O)NC(=O)[C@H](CCC(N)=O)NC1=O
8 | < 10 nM | < 10 nM | < 10 nM | > 6 h | > 6 h | CC(=O)NCCCC[C@H](NC(=O)[C@](C)(CCCCN)NC(=O)[C@H](Cc1ccc2ccccc2c1)NC(=O)[C@H](Cc1ccc(OCCN)cc1)NC(=O)[C@@H]1CSCC[C@H](NC(C)=O)C(=O)N[C@@H](CCC(N)=O)C(=O)N[C@@H]([C@@H](C)O)C(=O)N[C@@H](Cc2c[nH]c3ccccc23)C(=O)N[C@@H](CCC(N)=O)C(=O)N1)C(=O)N[C@@H](CC(N)=O)C(=O)NCC(N)=O
9 |  | < 10 nM | < 10 nM | > 6 h | > 6 h | CC(=O)N[C@H]1CCSC[C@@H](C(=O)N[C@@H](Cc2ccc(OCCN)cc2)C(=O)N[C@@H](Cc2ccc3ccccc3c2)C(=O)NC2(C(=O)N[C@@H](CCC(=O)O)C(=O)N[C@@H](CC(N)=O)C(=O)N[C@@H](CC(N)=O)C(N)=O)CCNCC2)NC(=O)[C@H](CCC(N)=O)NC(=O)[C@H](Cc2c[nH]c3ccccc23)NC(=O)[C@H]([C@@H](C)O)NC(=O)[C@H](CCC(N)=O)NC1=O
10 | 25 to 100 nM | 25 to 100 nM | 100 to 1000 nM | 2 to 3 h | 3 to 6 h | COc1ccc(C[C@H](NC(=O)[C@H]2NC(=O)[C@H](CCC(N)=O)NC(=O)[C@H](Cc3c[nH]c4ccccc34)NC(=O)[C@H]([C@@H](C)O)NC(=O)[C@H](CCC(N)=O)NC(=O)[C@@H](NC(C)=O)CCSC2(C)C)C(=O)N[C@@H](Cc2ccc3ccccc3c2)C(=O)N[C@@](C)(CCCCN)C(=O)N[C@@H](CCCCNC(C)=O)C(=O)N[C@@H](CC(N)=O)C(=O)NCC(N)=O)cc1
11 | 10 to 25 nM | < 10 nM | 25 to 100 nM | < 1 h | 2 to 3 h | COc1ccc(C[C@H](NC(=O)[C@@H]2CSCC[C@H](NC(C)=O)C(=O)N[C@@H](CCC(N)=O)C(=O)N[C@@H]([C@@H](C)O)C(=O)N[C@@H](Cc3c[nH]c4ccccc34)C(=O)N[C@@H](CCC(N)=O)C(=O)N2)C(=O)N[C@@H](Cc2ccc3ccccc3c2)C(=O)N[C@@](C)(CCCN)C(=O)N[C@@H](CCC(=O)O)C(=O)N[C@@H](CC(N)=O)C(=O)NCC(N)=O)cc1
12 | 25 to 100 nM | < 10 nM | 25 to 100 nM | 3 to 6 h | > 6 h | COc1ccc(C[C@H](NC(=O)[C@@H](NC(=O)[C@H](CCC(N)=O)NC(=O)[C@H](Cc2c[nH]c3ccccc23)NC(=O)[C@@H](NC(=O)[C@H](CCC(N)=O)NC(=O)[C@@H](NC(=O)[C@@H]2CCC(=O)N2)C(C)(C)S)[C@@H](C)O)C(C)(C)S)C(=O)N[C@@H](Cc2ccc3ccccc3c2)C(=O)N[C@@](C)(CCCCN)C(=O)N[C@@H](CCCCNC(C)=O)C(=O)N[C@@H](CC(N)=O)C(=O)NCC(N)=O)cc1
13 | 10 to 25 nM | 10 to 25 nM | 10 to 25 nM | < 1 h | > 6 h | COc1ccc(C[C@H](NC(=O)[C@@H]2CSCC[C@H](NC(C)=O)C(=O)N[C@@H](CCC(N)=O)C(=O)N[C@@H]([C@@H](C)O)C(=O)N[C@@H](Cc3c[nH]c4ccccc34)C(=O)N[C@@H](CCC(N)=O)C(=O)N2)C(=O)N[C@@H](Cc2c[nH]c3ccccc23)C(=O)N[C@@](C)(CCCCN)C(=O)N[C@@H](CCCCNC(C)=O)C(=O)N[C@@H](CC(N)=O)C(=O)NCC(N)=O)cc1
14 | < 10 nM | < 10 nM | 25 to 100 nM | > 6 h | > 6 h | CC(=O)N[C@H](C(=O)N[C@@H](CCC(N)=O)C(=O)N[C@H](C(=O)N[C@@H](Cc1c[nH]c2ccccc12)C(=O)N[C@@H](CCC(N)=O)C(=O)N[C@H](C(=O)N[C@@H](Cc1ccc(OCCN)cc1)C(=O)N[C@@H](Cc1ccc2ccccc2c1)C(=O)N[C@@](C)(CCCCN)C(=O)N[C@@H](CCC(=O)O)C(=O)N[C@@H](CC(N)=O)C(=O)N[C@@H](C)C(N)=O)C(C)(C)S)[C@@H](C)O)C(C)(C)S
15 |  | < 10 nM | < 10 nM | > 6 h | 2 to 3 h | CC(=O)N[C@H]1CCSC[C@@H](C(=O)N[C@@H](Cc2ccc(OCCN)cc2)C(=O)N[C@@H](Cc2ccc3ccccc3c2)C(=O)NC2(C(=O)N[C@@H](CCC(=O)O)C(=O)N[C@@H](CC(N)=O)C(=O)N[C@@H](CC(N)=O)C(N)=O)CCCC2)NC(=O)[C@H](CCC(N)=O)NC(=O)[C@H](Cc2c[nH]c3ccccc23)NC(=O)[C@H]([C@@H](C)O)NC(=O)[C@H](CCC(N)=O)NC1=O
16 | 10 to 25 nM |  | 25 to 100 nM | < 1 h | 3 to 6 h | CC(=O)N[C@H]1CCSC[C@@H](C(=O)N[C@@H](Cc2ccc3ccccc3c2)C(=O)N[C@@H](Cc2ccc3ccccc3c2)C(=O)N[C@@](C)(CCCCN)C(=O)N[C@@H](CCC(=O)O)C(=O)N[C@@H](CC(N)=O)C(=O)NCC(N)=O)NC(=O)[C@H](CCC(N)=O)NC(=O)[C@H](Cc2c[nH]c3ccccc23)NC(=O)[C@H]([C@@H](C)O)NC(=O)[C@H](CCC(N)=O)NC1=O (Ac-[Abu(4-yl)]QTWQC[2Nal][2Nal][αMeK]ENG-NH2; thioether 1-6)
